For assay [1], the system named is MAGE-A3 TCR (TCR-1). Put plainly: Kinetic binding of TCR to peptides (Octet BLI). To be noted: Table 3; Ala mutants of Peptide-5 and controls. The protocol: BLI based kinetic binding of TCR to peptides was measured using a ForteBio Octet RED96 instrument. Biotinylated peptides were first directly captured on streptavidin biosensors. Sensors were quenched using excess biocytin and then baselined in buffer. A dilution series of TCR was made and associated onto the peptide loaded biosensor. Association and dissociation signals were monitored in real-time. Signals were fit to a 1:1 binding model in order to derive binding constants, kon and koff, as well as KD.
For orientation: BLI is a label-free optical method that tracks binding on a fibre tip over time.

The test system of assay [2] is TCR-1 binding to MAGE-A3 pMHC. Put plainly: Inhibition of kinetic binding of TCR to its cognate pMHC (BLI). To be noted: Table 3.
Protocol: First, biotinylated pMHC was captured on streptavidin biosensors. Sensors were quenched using excess biocytin and then baselined in buffer. Inhibitory peptide was titrated in a two fold dilution series starting from 100 uM and pre-incubated with a constant concentration of 50 nM TCR. Peptide and TCR mixtures were then associated onto the pMHC loaded biosensor. Zero concentration of inhibitory peptide or zero concentration of TCR were used as controls. Association and dissociation signals were monitored in real-time. The maximal association signal was normalized from 100% (0 uM inhibitory peptide control) to 0% (0 nM TCR control) and plotted versus log-scale inhibitory peptide concentration.
The target of assay [3] is MAGE-A3 TCR (TCR-1). Put plainly: Equilibrium binding of TCR to peptides (ELISA). To be noted: Table 3.
Protocol: Peptide binding was also examined in an ELISA format. Biotinylated peptides were captured on neutravidin coated plates. TCR was then prepared in a half-log dilution series starting from 10 uM and titrated onto the peptide captured plates. […] The concentration of TCR required to observe half maximal binding signal (EC50) was then calculated using Graphpad Prism.

Regarding `CC(C)[C@H](NC(=O)CNC(=O)CN)C(=O)N[C@@H](CO)C(=O)N[C@H]1CSSC[C@@H](C(=O)N[C@@H](C)C(=O)N[C@H](C(=O)NCC(=O)NCC(=O)NCC(=O)NCC(=O)N[C@@H](CO)C(=O)NCCOCCOCCOCCOCCC(=O)N[C@@H](CCCCNC(=O)CCCC[C@@H]2SC[C@@H]3NC(=O)N[C@@H]32)C(N)=O)[C@@H](C)O)NC(=O)[C@H](Cc2ccccc2)NC(=O)[C@H](C)NC(=O)[C@H](CCC(=O)O)NC(=O)[C@H](CC(=O)O)NC(=O)[C@H](Cc2ccc(O)cc2)NC(=O)[C@H](C(C)C)NC(=O)[C@H](CC(=O)O)NC(=O)[C@H](CCCCN)NC1=O` [Peptide-32], the “Octet BLI Binds TCR” value in the assay on MAGE-A3 TCR (TCR-1) [1] is “Yes”. For the same molecule, the “Octet BLI Competes at 100 uM” value in assay [2] is on record as “Yes”.
`CC(C)[C@H](NC(=O)CNC(=O)CN)C(=O)N[C@@H](CO)C(=O)N[C@H]1CSSC[C@@H](C(=O)N[C@@H](Cc2c[nH]c3ccccc23)C(=O)N[C@H](C(=O)NCC(=O)NCC(=O)NCC(=O)NCC(=O)N[C@@H](CO)C(=O)NCCOCCOCCOCCOCCC(=O)N[C@@H](CCCCNC(=O)CCCC[C@@H]2SC[C@@H]3NC(=O)N[C@@H]32)C(N)=O)[C@@H](C)O)NC(=O)[C@H](Cc2ccccc2)NC(=O)[C@H](C)NC(=O)[C@H](CCC(=O)O)NC(=O)[C@H](C)NC(=O)[C@H](Cc2ccc(O)cc2)NC(=O)[C@H](C(C)C)NC(=O)[C@H](CC(=O)O)NC(=O)[C@H](CCCCN)NC1=O` [Peptide-28]: the “Octet BLI Binds TCR” value in the assay on MAGE-A3 TCR (TCR-1) [1] is “Yes”. Besides, in assay [2], the “Octet BLI Competes at 100 uM” value is reported as “Yes”.
`CC(C)[C@H](NC(=O)CNC(=O)CN)C(=O)N[C@@H](CO)C(=O)N[C@@H](C)C(=O)N[C@@H](CCCCN)C(=O)N[C@@H](CC(=O)O)C(=O)N[C@H](C(=O)N[C@@H](Cc1ccc(O)cc1)C(=O)N[C@@H](CC(=O)O)C(=O)N[C@@H](CCC(=O)O)C(=O)N[C@@H](C)C(=O)N[C@@H](Cc1ccccc1)C(=O)N[C@@H](CS)C(=O)N[C@@H](Cc1c[nH]c2ccccc12)C(=O)N[C@H](C(=O)NCC(=O)NCC(=O)NCC(=O)NCC(=O)N[C@@H](CO)C(=O)NCCOCCOCCOCCOCCC(=O)N[C@@H](CCCCNC(=O)CCCC[C@@H]1SC[C@@H]2NC(=O)N[C@@H]21)C(N)=O)[C@@H](C)O)C(C)C` [Peptide-23]: the “Octet BLI Binds TCR” value in the assay with MAGE-A3 TCR (TCR-1) [1] is “Yes”. The “Octet BLI Competes at 100 uM” value in assay [2] is on record as “Yes”. In addition, the concentration giving a half-maximal response (EC50) (usually the midpoint of the concentration-response curve) on MAGE-A3 TCR (TCR-1) [3] is above 10 µM.
With `CC(C)[C@H](NC(=O)CNC(=O)CN)C(=O)N[C@@H](CO)C(=O)N[C@H]1CSSC[C@@H](C(=O)N[C@@H](Cc2c[nH]c3ccccc23)C(=O)N[C@@H](C)C(=O)NCC(=O)NCC(=O)NCC(=O)NCC(=O)N[C@@H](CO)C(=O)NCCOCCOCCOCCOCCC(=O)N[C@@H](CCCCNC(=O)CCCC[C@@H]2SC[C@@H]3NC(=O)N[C@@H]32)C(N)=O)NC(=O)[C@H](Cc2ccccc2)NC(=O)[C@H](C)NC(=O)[C@H](CCC(=O)O)NC(=O)[C@H](CC(=O)O)NC(=O)[C@H](Cc2ccc(O)cc2)NC(=O)[C@H](C(C)C)NC(=O)[C@H](CC(=O)O)NC(=O)[C@H](CCCCN)NC1=O` [Peptide-33], in the assay on MAGE-A3 TCR (TCR-1) [1], the “Octet BLI Binds TCR” value is recorded as “Yes”. The “Octet BLI Competes at 100 uM” value in assay [2] is “Yes”.

Source of the values: US20230220105A1, “TUMOR ACTIVATED T CELL ENGAGERS AND METHODS OF USE THEREOF” (Janux Therapeutics, Inc., priority 2019, published 2023).
